{"source": "patent US20230277459A1", "about": "“PHARMACEUTICAL COMPOSITIONS HAVING HIGH DRUG LOADINGS OF MEDIUM CHAIN TRIGLYCERIDES AND METHODS RELATED THERETO” (CERECIN INC., priority 2017, published 2023)", "test": "In-vitro digestion pH titration", "assay_type": "in vitro ADME", "conditions": "FIG. 9", "text": "The digestion pH titration curves for both compositions, as well as control samples F-11 and the Miglyol 808 oil are shown in FIG. 9.", "data": [{"compound": "CCCCCCCC(=O)OCC(COC(=O)CCCCCCC)OC(=O)CCCCCCC", "note": "[Miglyol 808 oil, caprylic triglyceride]", "values": [{"measurement": "digestion pH titration curve", "result": "sigmoidal titration curve, and is slower to reach the endpoint"}]}]}
